Data from patent publication US6235516A, “Biocatalysts with amine acylase activity” (Novartis AG, priority 1996, dated 2001).
Values joined by “and” are separate entries in the source; they are usually repeats but may differ in a detail not shown here. Equal values may be shown once.

Assays:
K1/1 acylase = assay: Hydrolysis of racemic 2-acetylamino-1-phenyl-4-pentene with the purified K1/1 acylase; type: biochemical, Rhodococcus globerulus K1/1
Method: To 50 ml of a 10 mM solution of racemic 2-acetylamino-1-phenyl-4-pentene in phosphate buffer (pH 7.0) 7 ml of the K1/1 acylase are added (0.456 U), which has been purified by HIC and concentrated by ultrafiltration (example 26.5 and 26.6). The deacylation is performed at 30° C. under continuous shaking at 200 rpm. The reaction is monitored by HPLC (see example 1), and after the conversion is about 50% the solution is acidified to pH 2 with 1 N HCl and extracted three times with one volume of dichloromethane to obtain the unconverted amides. The aqueous phase is neutralized with 1 N NaOH and extracted again three times with dichloromethane to recover the formed amines. Both organic phases are dried with MgSO4, filtered and the solvent is distilled off. The amides are used directly for optical purity determinations via HPLC under the following conditions: Chiralcel OJ column, hexane/isopropanol 9:1 as the eluent, flow rate 1 ml/min., detection at 208 nm. The obtained amines are converted to the acetamides by adding […] to each sample before being also analyzed for the optical purity by HPLC.

AcR5b-acylase [1] = assay: Stability of the AcR5b-acylase during freezing, with and without cryoprotective agents; type: physicochemical, Arthrobacter aurescens AcR5b
AcR5b-acylase [2] = assay: Dependence of the reaction velocity of the AcR5b-acylase on substrate concentration (Km, Vmax); type: biochemical, Arthrobacter aurescens AcR5b; conditions: for Km: 30 min incubation, pH 7; for relative maximum reaction velocity: (R)-N-acetyl-1-phenylethylamine = 100
Method: Activity assays are performed under the standard conditions given in example 11 with an incubation time of 30 min. using different initial concentrations of (R)-N-acetyl-1-phenylethylamine and racemic N-acetyl-(m-cyano-phenyl)ethylamine. The final AcR5b-acylase preparation obtained in example 4d, which has been diluted 20 fold with 69 mM potassium phosphate buffer, pH 7, serve as the enzyme source. The Michaelis constants (Km) and the maximum reaction velocities are calculated as described in example 9.

[3] = system: whole cells of Rhodococcus globerulus K1/1; assay: Amide hydrolysis with whole cells of Rhodococcus globerulus K1/1; type: cell-based; conditions: for Selectivity E: enantioselectivity of the hydrolysis; for e.e. (S)-Amine: formed amine, analysed as acetamide; for e.e. (R)-Amide: unconverted amide, chiral HPLC
Excerpt: (§1) When the conversion reaches about 50% (checked by HPLC) the solutions are acidified to pH 2 by adding 1 N HCl and extracted three times with dichloromethane to obtain the unconverted amides. The aqueous layers are neutralized with 1 N NaOH solution and extracted again three times with dichloromethane to recover the formed amines. Both organic phases are dried with MgSO4, filtered and the solvent is distilled off. The amides are used directly for optical purity determinations (HPLC), whereas the obtained amines are converted to the acetamides by adding 100 μl triethylamine and 100 μl acetic anhydride to each sample and then analyzed for the optical purity by "chiral" HPLC.
To 50 ml of a 10 mM solution in phosphate buffer pH 7.0 of each racemic amide listed in table 16, whole cells of Rhodococcus globerulus K1/1 (each obtained from 50 ml shake flask medium (see example 21), OD660 =2.0) is added. The deacetylation is performed at 30° C. under continuous shaking (200 rpm). The reaction is monitored by HPLC and after the conversion is about 50% the reaction mixtures are worked up in the same manner as described in example 22.

[4] = system: whole cells of Rhodococcus globerulus K1/1; assay: Hydrolysis of racemic 2-acetylamino-1(4-chlorophenyl)-4-pentene with whole cells of Rhodococcus globerulus K1/1; type: cell-based; conditions: 80 g racemic amide in 20 l, 21 h at 28° C.
Method: Strain K1/1 is grown according to example 3 in a 30 l fermenter filled with 20 l of basic medium containing 1 g/l of racemic N-acetyl-1-phenylethylamine. The cells are harvested by continuous centrifugation and resuspended in the reaction mixture, which is prepared by adding a solution of 80 g racemic 2-acetylamino-1(4-chlorophenyl)-4-pentene in 500 ml methanol to 20 l of potassium phosphate buffer, 69 mM, pH 7. After stirring for 21 h at 28° C. and 500 rpm the amine formed and the unreacted amide are separated and analyzed for their optical purity analogously to the procedure given in example 30.

Strain K1/1 = assay: Growth and induction of the acylase of Rhodococcus globerulus K1/1, variation of the inducer; type: cell-based; conditions: for induction of acylase formation by strain K1/1: racemic inducer, 0-9.84 mM
Method: Strain K1/1 is grown in shake flask culture using the medium from example 21, but with 2 g/l of each yeast extract and peptone, with racemic 2-acetylamino-1-phenyl-4-pentene or alternatively racemic N-acetyl-1-phenylethylamine as the inducer in concentrations of 0, 4.92, 7.38, and 9.84 mM.

CC(=O)N[C@@H](C)c1ccccc1 = assay: Dependence of the reaction velocity of the Ac6-acylase on substrate concentration (Km); type: biochemical, Rhodococcus equi Ac6; conditions: other: purified Ac6-acylase, pH 7, 30° C., 10 min, nonlinear regression
Method: Activity assay under the standard conditions given in example 1 with an incubation time of 10 min. are performed using different initial concentrations of (S)-N-acetyl-1-phenylethylamine and the final Ac6-acylase preparation obtained in example 4c, which has been diluted 5 fold with 69 mM potassium phosphate buffer, pH 7, as the enzyme source. The Michaelis constant Km is calculated from the substrate concentrations and the corresponding reaction velocities by numerical nonlinear regression with the program "SigmaPlot for Windows" (Jandel Scientific GmbH, Schimmelbusch, Germany) to the formula: v=Vm×S/(S+Km). v: reaction velocity (U/ml=mM/min.), Vm : maximum reaction velocity (U/ml), S=(S)-N-acetyl-1-phenylethylamine concentration (mM).

[5] = system: acylase from Arthrobacter aurescens Ac5R; assay: Enzymatic hydrolysis of racemic amides with highly purified acylase from Arthrobacter aurescens Ac5R; type: biochemical; conditions: for Selectivity E: enantioselectivity of the hydrolysis; for e.e. (R)-Amine: formed amine, analysed as acetamide by chiral HPLC; for e.e. (S)-Amide: unconverted amide, chiral HPLC
Method: (§2) To 10 ml of a 20 mM solution of each of the racemic amides shown below 1 in 0.1 M phosphate buffer pH 7.0, 5 ml (1.3 units) of the enzyme is added and the solutions are shaken at 100 rpm and 30° C. [drawing 10] [drawing 11]
as §1

R. equi Ac6 = assay: Growth and induction of the acylase of Rhodococcus equi Ac6 (shake flask culture); type: cell-based; conditions: for induction of the acylase expression of strain Ac6: 3 g/l in basic medium; for Enzyme yield with (R)-amide as the acylase substrate / Enzyme yield with (S)-amide as the acylase substrate: basic medium + 3 g/l of the amide as inducer; for Enzyme yield with (R)-amide as the acylase substrate / Enzyme yield with (S)-amide as the acylase substrate / OD660 at cell harvest: 91 h; for OD660 at cell harvest: basic medium + 3 g/l of the amide, basic medium alone 0.46; for effect on growth of Rhodococcus equi Ac6: in the growth medium
Method: R. equi Ac6 is grown in basic medium containing 3 g/l (S)-N-acetyl-1-phenylethylamine or 3 g/l (R)-N-acetyl-1-phenylethylamine or no N-acetyl-1-phenylethylamine for 91 h by the shake flask culture technique described in example 1. By applying the methods given in example 1 the crude extracts are prepared and subjected to measurement of the protein concentration and the acylase activity using (S)-N-acetyl-1-phenylethylamine and (R)-N-acetyl-1-phenylethylamine as the substrates.
R. equi Ac6 cells are inoculated into three 1 l Erlenmeyer flask containing each 100 ml of basic medium with 10 g/l yeast extract and 10 g/l meat extract as additional nutrients. The cells are grown (shake flask technique see example 1) until the OD660 reaches about 2. Then the culture is split into eight portions of 25 ml and (S)-N-acetyl-1-phenylethylamine is added to the shake flasks in final concentrations of 0-7 g/l in steps of 1 g/l. The cells are further incubated for 25 h. Then the protein concentrations and acylase activities of the crude extracts are measured as described in example 1.
In another experiment (S)-N-acetyl-1-phenylethylamine is added to the culture medium in final concentrations of 1 to 5 g/l in steps of 1 g/l directly after inoculation to one series of shake flasks (see example 1) and after 72 h of growth to another. Basic medium without peptone supplemented with 20 g/l meat extract and 20 g/l yeast extract is used. 96 h after inoculation the cells are harvested by centrifugation and the protein concentration and acylase activity in the crude extract are measured (see example 1).

[6] = molecular target: T1, acylase from Rhodococcus equi Ac6 (Rhodococcus (subgen. Prescottella) equi, UniProt A0A3S5Y3Z2); assay: Enzymatic hydrolysis of racemic amides with partially purified acylase from Rhodococcus equi Ac6; type: biochemical; set-up: e.e. (R)-Amide: unit not given here; conditions: for Selectivity E: enantioselectivity of the hydrolysis; for e.e. (S)-Amine: formed amine, analysed as acetamide; for e.e. (R)-Amide: unconverted amide, chiral HPLC
T1 construct: N-terminus […]
Method: as §2, §1
The experiments are carried out in the same manner as described in example 22.

[7] = AcR5b-acylase frozen 2.5 h at -20° C. with the cryoprotective agent of the label (label AcR5b-acylase = none)
[8] = AcR5b-acylase frozen 2.5 h at -80° C. with the cryoprotective agent of the label (label AcR5b-acylase = none)
[9] = AcR5b-acylase frozen 9 days at -20° C. with the cryoprotective agent of the label (label AcR5b-acylase = none)
[10] = AcR5b-acylase frozen 9 days at -80° C. with the cryoprotective agent of the label (label AcR5b-acylase = none)

T1 sequence (A0A3S5Y3Z2 1-487): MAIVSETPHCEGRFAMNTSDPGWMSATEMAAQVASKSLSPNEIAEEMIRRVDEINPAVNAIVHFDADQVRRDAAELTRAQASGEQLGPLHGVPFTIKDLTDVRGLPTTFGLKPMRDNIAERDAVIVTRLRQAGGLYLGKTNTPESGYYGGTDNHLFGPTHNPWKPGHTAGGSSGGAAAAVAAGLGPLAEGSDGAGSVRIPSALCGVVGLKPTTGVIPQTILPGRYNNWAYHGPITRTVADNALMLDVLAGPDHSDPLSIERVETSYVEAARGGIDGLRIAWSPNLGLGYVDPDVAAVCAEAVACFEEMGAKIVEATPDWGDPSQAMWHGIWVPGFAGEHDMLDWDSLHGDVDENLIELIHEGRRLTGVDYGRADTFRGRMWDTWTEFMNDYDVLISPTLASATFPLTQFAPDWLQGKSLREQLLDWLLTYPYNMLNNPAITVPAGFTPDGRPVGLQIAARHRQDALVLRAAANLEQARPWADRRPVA

## C=CC[C@H](Cc1ccccc1)NC(C)=O [(R)-N-2-acetylamino-1-phenyl-4-pentene]
K1/1 acylase; at 50.3% conversion
  ee of the unconverted amide: 98.8 % ee

## OCC(O)CO [50% Glycerol, Glycerol]
AcR5b-acylase [1]; [7]
  Relative activity (%): 77%
AcR5b-acylase [1]; [8]
  Relative activity (%): 100%
AcR5b-acylase [1]; [9]
  Relative activity (%): 98%
AcR5b-acylase [1]; [10]
  Relative activity (%): 90%

## C=CC[C@H](N)Cc1ccccc1 [(S)-2-amino-1-phenyl-4-pentene]
K1/1 acylase; at 50.3% conversion
  ee of the formed amine: 87.4 % ee

## OC[C@H]1O[C@@](CO)(O[C@H]2O[C@H](CO)[C@@H](O)[C@H](O)[C@H]2O)[C@@H](O)[C@@H]1O [10% Saccharose, Saccharose]
AcR5b-acylase [1]; [7]
  Relative activity (%): 100%
AcR5b-acylase [1]; [8]
  Relative activity (%): 100%
AcR5b-acylase [1]; [9]
  Relative activity (%): 100%
AcR5b-acylase [1]; [10]
  Relative activity (%): 92%

## CC(=O)NC(C)c1cccc(C#N)c1 (racemic) [racemic (m-cyano) derivative, N-acetyl-(m-cyano-phenyl)ethylamine]
AcR5b-acylase [2]
  Km: 10.4 mM
  relative maximum reaction velocity: 23%

## CCC(Cc1ccccc1)NC(C)=O (racemic) [Substrate 12a]
[3]
  Selectivity E: 87
  e.e. (S)-Amine: 93.0 and 87.9
  e.e. (R)-Amide: 90.7 and > 99.9

## C=CC[C@H](Cc1ccc(Cl)cc1)NC(C)=O [(R)-2-acetylamino-1(4-chlorophenyl)-4-pentene]
[4]
  ee of the unreacted amide: 98.5 % ee

## N.N.O=S(=O)(O)O [10% (NH4)2 SO4, (NH4)2 SO4]
AcR5b-acylase [1]; [7]
  Relative activity (%): 100%
AcR5b-acylase [1]; [8]
  Relative activity (%): 92%
AcR5b-acylase [1]; [9]
  Relative activity (%): 81%
AcR5b-acylase [1]; [10]
  Relative activity (%): 83%

## C=CCC(Cc1ccccc1)NC(C)=O (racemic) [2-acetylamino-1-phenyl-4-pentene]
Strain K1/1
  induction of acylase formation by strain K1/1: inducing substance
K1/1 acylase; 10 mM racemic substrate, 0.456 U K1/1 acylase, pH 7.0, 30° C.
  conversion: 50.3%
K1/1 acylase; at 50.3% conversion
  E-value: 74.9

## Ac6-acylase (Rhodococcus equi 103S)
CC(=O)N[C@@H](C)c1ccccc1
  Km: 0.6 mM

## CC(=O)NC1CCOc2ccccc21 (racemic) [Substrate 6a]
[5]
  Selectivity E: 32
  e.e. (R)-Amine: 90.5
  e.e. (S)-Amide: 46.6
[3]
  Selectivity E: 290
  e.e. (S)-Amine: 93.5
  e.e. (R)-Amide: > 99.9

## CC(=O)N[C@H](C)c1ccccc1 [(R)-N-acetyl-1-phenylethylamine]
R. equi Ac6
  induction of the acylase expression of strain Ac6: not effective as an inducer
  Enzyme yield with (R)-amide as the acylase substrate: 0 U/lculture broth
  Enzyme yield with (S)-amide as the acylase substrate: 0 U/lculture broth
  OD660 at cell harvest: 0.19
  effect on growth of Rhodococcus equi Ac6: inhibits the growth of the bacterium
AcR5b-acylase [2]
  Km: 5.7 mM
  relative maximum reaction velocity: 100%

## CCCC(Cc1ccccc1)NC(C)=O (racemic) [Substrate 11a]
[3]
  Selectivity E: 35
  e.e. (S)-Amine: 77.8
  e.e. (R)-Amide: 97.8

## CCC(NC(C)=O)c1ccccc1 (racemic) [Substrate 4a]
[5]
  Selectivity E: > 500
  e.e. (R)-Amine: > 99.9
  e.e. (S)-Amide: 87.4
[6]
  Selectivity E: > 500
  e.e. (S)-Amine: 98.5
  e.e. (R)-Amide: > 99.9
[3]
  Selectivity E: 140
  e.e. (S)-Amine: 90.0
  e.e. (R)-Amide: > 99.9

## C=CC[C@H](N)Cc1ccc(Cl)cc1 [(S)-2-amino-1(4-chlorophenyl)-4-pentene]
[4]
  ee of the formed amine: > 99.9 % ee

## OCC(O)CO [5% Glycerol, Glycerol]
AcR5b-acylase [1]; [7]
  Relative activity (%): 100%
AcR5b-acylase [1]; [8]
  Relative activity (%): 100%
AcR5b-acylase [1]; [9]
  Relative activity (%): 89%
AcR5b-acylase [1]; [10]
  Relative activity (%): 97%

## CC(=O)N[C@@H](C)c1ccccc1 [(S)-N-acetyl-1-phenylethylamine]
R. equi Ac6; 2 g/l inducer added 72 h after inoculation, harvest 96 h
  maximal acylase production: 20 U/lculture medium
R. equi Ac6
  induction of the acylase expression of strain Ac6: has to be present in the growth medium to induce the acylase expression
  Enzyme yield with (R)-amide as the acylase substrate: < 0.4 U/lculture broth
  Enzyme yield with (S)-amide as the acylase substrate: 38.2 U/lculture broth
  OD660 at cell harvest: 1.52
  effect on growth of Rhodococcus equi Ac6: inhibits the growth of the cells
R. equi Ac6; 3 g/l inducer added directly after inoculation, harvest 96 h
  maximal acylase yield: 60 U/lculture medium

## CC(=O)NC(C)c1ccccc1 (racemic) [Substrate 1a, N-acetyl 1-phenylethylamine]
[5]
  Selectivity E: > 500
  e.e. (R)-Amine: 98.2
  e.e. (S)-Amide: > 99.9
[6]
  Selectivity E: 350
  e.e. (S)-Amine: 96.8
  e.e. (R)-Amide: 99.3
Strain K1/1; 7.38 and 9.84 mM
  effect on growth of strain K1/1: do not inhibit the growth
Strain K1/1
  induction of acylase formation by strain K1/1: inducing substance
[3]
  Selectivity E: > 500
  e.e. (S)-Amine: 97.5
  e.e. (R)-Amide: > 99.9

## C=CCC(Cc1ccccc1)NC(C)=O (racemic) [Substrate 10a]
[3]
  Selectivity E: 70
  e.e. (S)-Amine: 90.0
  e.e. (R)-Amide: 95.7
